# Laboratory results as given in ChEMBL document CHEMBL3046027, “In vitro and in vivo antifungal activity of synthetic pure isothiocyanates against Sclerotinia sclerotiorum” (Pest Manag Sci, 2011).
# Legend:
# Sclerotinia sclerotiorum [1] = experiment: Fungistatic activity in Sclerotinia sclerotiorum assessed as inhibition of carpogenic germination in volatile phase at 51 umol/l measured at 20 degC after 5 days relative to control; type: functional; settings: 120 h
# Sclerotinia sclerotiorum [2] = experiment: Fungistatic activity in Sclerotinia sclerotiorum assessed as inhibition of mycelial growth in contact phase at 3065 umol/l measured at 20 degC after 5 days relative to control; type: functional; settings: 120 h, read-out: GI
# Sclerotinia sclerotiorum [3] = experiment: Antifungal activity against Sclerotinia sclerotiorum assessed as inhibition of germination in volatile phase at 51 umol/l measured at 20 degC after 5 days; type: functional; settings: 120 h
# Sclerotinia sclerotiorum [4] = experiment: Antifungal activity against Sclerotinia sclerotiorum assessed as inhibition of mycelial growth in volatile phase at 510 umol/l measured at 20 degC after 5 days; type: functional; settings: 120 h, read-out: GI
# Sclerotinia sclerotiorum [5] = experiment: Antifungal activity against Sclerotinia sclerotiorum assessed as inhibition of mycelial growth in volatile phase at 102 umol/l measured at 20 degC after 5 days; type: functional; settings: 120 h, read-out: GI
# Sclerotinia sclerotiorum [6] = experiment: Antifungal activity against Sclerotinia sclerotiorum assessed as inhibition of mycelial growth in contact phase at 1022 umol/l measured at 20 degC after 5 days; type: functional; settings: 120 h, read-out: GI
# Sclerotinia sclerotiorum [7] = experiment: In vivo antifungal Sclerotinia sclerotiorum in Pepper (Capsicum annuum L. cv. Sera Demre) assessed as inhibition of mycelial growth in volatile phase at 204 umol/L measured after 10 to 14 weeks; type: functional
# Sclerotinia sclerotiorum [8] = experiment: Antifungal activity against Sclerotinia sclerotiorum assessed as inhibition of germination in volatile phase at 1022 umol/l measured at 20 degC after 5 days; type: functional; settings: 120 h
# Sclerotinia sclerotiorum [9] = experiment: In vivo antifungal Sclerotinia sclerotiorum in Pepper (Capsicum annuum L. cv. Sera Demre) assessed as inhibition of mycelial growth in volatile phase at 102 umol/L measured after 10 to 14 weeks; type: functional
# Sclerotinia sclerotiorum [10] = experiment: Antifungal activity against Sclerotinia sclerotiorum assessed as inhibition of mycelial growth in volatile phase at 51 umol/l measured at 20 degC after 5 days; type: functional; settings: 120 h, read-out: GI
# Sclerotinia sclerotiorum [11] = experiment: Antifungal activity against Sclerotinia sclerotiorum assessed as inhibition of mycelial growth in contact phase at 920 umol/l measured at 20 degC after 5 days; type: functional; settings: 120 h, read-out: GI
# Sclerotinia sclerotiorum [12] = experiment: Antifungal activity against Sclerotinia sclerotiorum assessed as inhibition of mycelial growth in volatile phase at 714 umol/l measured at 20 degC after 5 days; type: functional; settings: 120 h, read-out: GI
# Sclerotinia sclerotiorum [13] = experiment: Fungistatic activity in Sclerotinia sclerotiorum assessed as inhibition of carpogenic germination in volatile phase at 1020 umol/l measured at 20 degC after 5 days relative to control; type: functional; settings: 120 h
# Sclerotinia sclerotiorum [14] = experiment: Fungistatic activity in Sclerotinia sclerotiorum assessed as inhibition of carpogenic germination in volatile phase at 102 umol/l measured at 20 degC after 5 days relative to control; type: functional; settings: 120 h
# Sclerotinia sclerotiorum [15] = experiment: Antifungal activity against Sclerotinia sclerotiorum assessed as inhibition of germination in volatile phase at 307 umol/l measured at 20 degC after 5 days; type: functional; settings: 120 h
# Sclerotinia sclerotiorum [16] = experiment: Fungistatic activity in Sclerotinia sclerotiorum assessed as inhibition of mycelial growth in volatile phase at 714 umol/l measured at 20 degC after 5 days relative to control; type: functional; settings: 120 h, read-out: GI
# Sclerotinia sclerotiorum [17] = experiment: Antifungal activity against Sclerotinia sclerotiorum assessed as inhibition of germination in volatile phase at 511 umol/l measured at 20 degC after 5 days; type: functional; settings: 120 h
# Sclerotinia sclerotiorum [18] = experiment: Antifungal activity against Sclerotinia sclerotiorum assessed as inhibition of mycelial growth in contact phase at 715 umol/l measured at 20 degC after 5 days; type: functional; settings: 120 h, read-out: GI
# Sclerotinia sclerotiorum [19] = experiment: Fungistatic activity in Sclerotinia sclerotiorum assessed as inhibition of mycelial growth in contact phase measured at 20 degC after 5 days; type: functional, organism-based; settings: 120 h
# Sclerotinia sclerotiorum [20] = experiment: Fungistatic activity in Sclerotinia sclerotiorum assessed as inhibition of carpogenic germination in volatile phase at 510 umol/l measured at 20 degC after 5 days relative to control; type: functional; settings: 120 h
# Sclerotinia sclerotiorum [21] = experiment: Antifungal activity against Sclerotinia sclerotiorum assessed as inhibition of mycelial growth in contact phase at 2043 umol/l measured at 20 degC after 5 days; type: functional; settings: 120 h, read-out: GI
# Sclerotinia sclerotiorum [22] = experiment: Antifungal activity against Sclerotinia sclerotiorum assessed as inhibition of mycelial growth in volatile phase at 1020 umol/l measured at 20 degC after 5 days; type: functional; settings: 120 h, read-out: GI
# Sclerotinia sclerotiorum [23] = experiment: Antifungal activity against Sclerotinia sclerotiorum assessed as inhibition of germination in volatile phase at 102 umol/l measured at 20 degC after 5 days; type: functional; settings: 120 h
# Sclerotinia sclerotiorum [24] = experiment: Fungistatic activity in Sclerotinia sclerotiorum assessed as inhibition of mycelial growth in volatile phase measured at 20 degC after 5 days; type: functional, organism-based; settings: 120 h
# Sclerotinia sclerotiorum [25] = experiment: Fungitoxic activity in Sclerotinia sclerotiorum assessed as inhibition of mycelial growth in volatile phase at 1020 umol/l measured at 20 degC after 5 days relative to control; type: functional; settings: 120 h, read-out: GI
# Sclerotinia sclerotiorum [26] = experiment: Antifungal activity against Sclerotinia sclerotiorum assessed as inhibition of mycelial growth in contact phase at 3065 umol/l measured at 20 degC after 5 days; type: functional; settings: 120 h, read-out: GI
structure (smiles),measurement,setting,value
C=CCN=C=S [ALLYL ISOTHIOCYANATE],inhibition at 51 µM,Sclerotinia sclerotiorum [1],60%
same,inhibition of growth at 3065 µM,Sclerotinia sclerotiorum [2],100%
same,inhibition at 51 µM,Sclerotinia sclerotiorum [3],0%
same,inhibition of growth at 510 µM,Sclerotinia sclerotiorum [4],87%
same,inhibition of growth at 102 µM,Sclerotinia sclerotiorum [5],50.7%
same,inhibition of growth at 1022 µM,Sclerotinia sclerotiorum [6],45.5%
same,inhibition in vivo at 204 µM,Sclerotinia sclerotiorum [7],81.7%
same,inhibition at 1022 µM,Sclerotinia sclerotiorum [8],0%
same,inhibition in vivo at 102 µM,Sclerotinia sclerotiorum [9],76.7%
same,inhibition of growth at 51 µM,Sclerotinia sclerotiorum [10],45.7%
same,inhibition of growth at 920 µM,Sclerotinia sclerotiorum [11],37.7%
same,inhibition of growth at 714 µM,Sclerotinia sclerotiorum [12],100%
same,inhibition at 1020 µM,Sclerotinia sclerotiorum [13],75%
same,inhibition at 102 µM,Sclerotinia sclerotiorum [14],67.5%
same,inhibition at 307 µM,Sclerotinia sclerotiorum [15],0%
same,inhibition of growth at 714 µM,Sclerotinia sclerotiorum [16],100%
same,inhibition at 511 µM,Sclerotinia sclerotiorum [17],0%
same,inhibition of growth at 715 µM,Sclerotinia sclerotiorum [18],32%
same,EC50,Sclerotinia sclerotiorum [19],1060 µM
same,inhibition at 510 µM,Sclerotinia sclerotiorum [20],67.5%
same,inhibition of growth at 2043 µM,Sclerotinia sclerotiorum [21],77%
same,inhibition of growth at 1020 µM,Sclerotinia sclerotiorum [22],100%
same,inhibition at 102 µM,Sclerotinia sclerotiorum [23],0%
same,EC50,Sclerotinia sclerotiorum [24],71.5 µM
same,inhibition of growth at 1020 µM,Sclerotinia sclerotiorum [25],100%
same,inhibition of growth at 3065 µM,Sclerotinia sclerotiorum [26],100%
